Values quoted from earlier work, collected in patent US20050070512A1, “Pharmaceutical composition and methods comprising combinations of 2-alkylidene-19-nor-vitamin D derivatives and an estrogen agonist/antagonist” (Pfizer Inc, priority 2003, published 2005).

System: HL-60 cells

| SMILES | Induction of differentiation of HL-60 cells to the monocyte (in words) |
| --- | --- |
| C=C1[C@H](O)CC(=C/C=C2\CCC[C@]3(C)[C@@H]([C@H](C)CCCC(C)(C)O)CC[C@@H]23)C[C@H]1O [2-Methylene-19-Nor-1,25-(OH)2D3, 1α,25-dihydroxy-2-methylene-19-nor-vitamin D3] | activity similar to 1,25-(OH)2D3 |
| C=C1[C@H](O)CC(=C/C=C2\CCC[C@]3(C)[C@@H]([C@@H](C)CCCC(C)(C)O)CC[C@@H]23)C[C@H]1O [2-Methylene-19-Nor-20S-1,25-(OH)2D3, (20S)-1α,25-dihydroxy-2-methylene-19-nor-vitamin D3] | extremely potent |
